Data taken from patent publication US10696615B2, “Prenylated hydroxystilbenes” (The University of Sydney, priority 2011, dated 2020).

Columns and labels:
SF-539 = assay: NCI in vitro cancer screen, CNS Cancer; type: cell-based; settings: SF-539
SNB-75 = assay: NCI in vitro cancer screen, CNS Cancer; type: cell-based, human; settings: SNB-75
SNB-19 = assay: NCI in vitro cancer screen, CNS Cancer; type: cell-based, human; settings: SNB-19
NCI-H322M = assay: NCI in vitro cancer screen, Non-Small Cell Lung Cancer; type: cell-based, human
HL-60 (TB) = assay: NCI in vitro cancer screen, Leukemia; type: cell-based, human; settings: HL-60 (TB)
MALME-3M = assay: NCI in vitro cancer screen, Melanoma; type: cell-based, human
NCI-H522 = assay: NCI in vitro cancer screen, Non-Small Cell Lung Cancer; type: cell-based, human; settings: NCI-H522
OVCAR-3 = assay: NCI in vitro cancer screen, Ovarian Cancer; type: cell-based, human; settings: OVCAR-3
KM12 = assay: NCI in vitro cancer screen, Colon Cancer; type: cell-based, human; settings: KM12
CAKI-1 = assay: NCI in vitro cancer screen, Renal Cancer; type: cell-based, human; settings: CAKI-1
HT29 = assay: NCI in vitro cancer screen, Colon Cancer; type: cell-based, human; settings: HT29
OVCAR-5 = assay: NCI in vitro cancer screen, Ovarian Cancer; type: cell-based, human; settings: OVCAR-5
IGROV1 = assay: NCI in vitro cancer screen, Ovarian Cancer; type: cell-based, human; settings: IGROV1
UACC-257 = assay: NCI in vitro cancer screen, Melanoma; type: cell-based, human; settings: UACC-257
COLO 205 = assay: NCI in vitro cancer screen, Colon Cancer; type: cell-based, human; settings: COLO 205
SF-295 = assay: NCI in vitro cancer screen, CNS Cancer; type: cell-based, human; settings: SF-295
U251 = assay: NCI in vitro cancer screen, CNS Cancer; type: cell-based, human; settings: U251
A549/ATCC = assay: NCI in vitro cancer screen, Non-Small Cell Lung Cancer; type: cell-based, human
MCF7 = assay: NCI in vitro cancer screen, Breast Cancer; type: cell-based, human; settings: MCF7
K-562 = assay: NCI in vitro cancer screen, Leukemia; type: cell-based, human; settings: K-562
DU-145 = assay: NCI in vitro cancer screen, Prostate Cancer; type: cell-based, human; settings: DU-145
SW-620 = assay: NCI in vitro cancer screen, Colon Cancer; type: cell-based, human; settings: SW-620
ACHN = assay: NCI in vitro cancer screen, Renal Cancer; type: cell-based, human
UO-31 = assay: NCI in vitro cancer screen, Renal Cancer; type: cell-based, human; settings: UO-31
[1] = test system: MDA-MB-231 (MDA-MB-231/ATCC); assay: NCI in vitro cancer screen, Breast Cancer; type: cell-based, human; settings: MDA-MB-231
ADR-RES (NCI/ADR-RES) = assay: NCI in vitro cancer screen, Ovarian Cancer; type: cell-based, human
HOP-92 = assay: NCI in vitro cancer screen, Non-Small Cell Lung Cancer; type: cell-based, human; settings: HOP-92
NCI-H226 = assay: as above; type: cell-based, human; settings: NCI-H226
HCT-116 = assay: NCI in vitro cancer screen, Colon Cancer; type: cell-based, human; settings: HCT-116
MOLT-4 = assay: NCI in vitro cancer screen, Leukemia; type: cell-based, human; settings: MOLT-4
OVCAR-4 = assay: NCI in vitro cancer screen, Ovarian Cancer; type: cell-based, human; settings: OVCAR-4
[2] = Homo sapiens, read-out: LC50 (the source's name)

CC(C)=CCc1c(O)cc(/C=C/c2ccc(O)c(O)c2)c(CC=C(C)C)c1O [USYDS7, (E)-2,4-di(3-methyl-2-buten-1-yl)-3,3′,4′,5-tetrahydroxystilbene] gave a GI50 (SF-539; Homo sapiens) of 2.21 µM, a CC50 (SF-539; [2]) of 35.2 µM and a TGI (SF-539) of 6.14 µM. For the same molecule, the GI50 (SNB-75; Homo sapiens) was 2.98 µM, the CC50 (SNB-75; [2]) was 49.1 µM and the TGI (SNB-75) was 12.8 µM. The GI50 (SNB-19; Homo sapiens) was 2.8 µM, the CC50 (SNB-19; [2]) was 39.9 µM and the TGI (SNB-19) was 8.64 µM. The TGI (NCI-H322M) was 18.1 µM, the GI50 (NCI-H322M; Homo sapiens) was 5.29 µM and the LC50 (50% lethal concentration) (NCI-H322M; Homo sapiens) was 44.7 µM. For the same molecule, the TGI (HL-60 (TB)) was 5.06 µM, the GI50 (HL-60 (TB); Homo sapiens) was 2.39 µM and the CC50 (HL-60 (TB); [2]) was 13.8 µM. For the same molecule, the GI50 (MALME-3M; Homo sapiens, Malme-3M) was 1.97 µM, the CC50 (MALME-3M; Homo sapiens, Malme-3M, read-out: LC50 (the source's name)) was 10.4 µM and the TGI (MALME-3M; MALME-3M) was 4.46 µM. The GI50 (NCI-H522; Homo sapiens) was 1.61 µM, the CC50 (NCI-H522; [2]) was 7.92 µM and the TGI (NCI-H522) was 3.57 µM. It also gave a GI50 (OVCAR-3; Homo sapiens) of 1.82 µM, a CC50 (OVCAR-3; [2]) of 6.19 µM and a TGI (OVCAR-3) of 3.36 µM. For the same molecule, the GI50 (KM12; Homo sapiens) was 1.93 µM, the CC50 (KM12; [2]) was 7.79 µM and the TGI (KM12) was 3.88 µM. It also gave a TGI (CAKI-1) of 16.2 µM, a GI50 (CAKI-1; Homo sapiens) of 4.24 µM and a CC50 (CAKI-1; [2]) of 49 µM. The TGI (HT29) was 10.8 µM, the GI50 (HT29; Homo sapiens, HT-29) was 3.64 µM and the CC50 (HT29; Homo sapiens, HT-29, read-out: LC50 (the source's name)) was 45.8 µM. The GI50 (OVCAR-5; Homo sapiens) was 3.04 µM, the CC50 (OVCAR-5; [2]) was 39 µM and the TGI (OVCAR-5) was 11.6 µM. For the same molecule, the GI50 (IGROV1; Homo sapiens, IGROV-1) was 3.12 µM, the CC50 (IGROV1; Homo sapiens, IGROV-1, read-out: LC50 (the source's name)) was 36.7 µM and the TGI (IGROV1) was 8.39 µM. It also gave a GI50 (UACC-257; Homo sapiens) of 2.18 µM, a CC50 (UACC-257; [2]) of 23 µM and a TGI (UACC-257) of 5.93 µM. The TGI (COLO 205) was 4.34 µM, the GI50 (COLO 205; Homo sapiens) was 1.79 µM and the CC50 (COLO 205; [2]) was 12.2 µM. It also gave a GI50 (SF-295; Homo sapiens) of 3.37 µM, a CC50 (SF-295; [2]) of 44.6 µM and a TGI (SF-295) of 11.4 µM. For the same molecule, the GI50 (U251; Homo sapiens, U-251) was 1.49 µM, the CC50 (U251; Homo sapiens, U-251, read-out: LC50 (the source's name)) was 5.74 µM and the TGI (U251) was 2.93 µM. The TGI (A549/ATCC) was 4.06 µM, the GI50 (A549/ATCC; Homo sapiens) was 1.88 µM and the CC50 (A549/ATCC; [2]) was 8.78 µM. For the same molecule, the GI50 (MCF7; Homo sapiens) was 2.1 µM, the CC50 (MCF7; [2]) was 57.9 µM and the TGI (MCF7) was 12.0 µM. The GI50 (K-562; Homo sapiens, K562) was 2.14 µM, the CC50 (K-562; Homo sapiens, K562, read-out: LC50 (the source's name)) was 17.4 µM and the TGI (K-562) was 4.78 µM. For the same molecule, the TGI (DU-145) was 7.62 µM, the GI50 (DU-145; Homo sapiens) was 2.65 µM and the CC50 (DU-145; [2]) was 28.3 µM. It also gave a GI50 (SW-620; Homo sapiens) of 1.58 µM, a CC50 (SW-620; [2]) of 6.42 µM and a TGI (SW-620) of 3.19 µM. For the same molecule, the TGI (ACHN) was 9.12 µM, the GI50 (ACHN; Homo sapiens) was 2.58 µM and the CC50 (ACHN; [2]) was 37.6 µM. It also gave a GI50 (UO-31; Homo sapiens) of 1.6 µM, a CC50 (UO-31; [2]) of 7.46 µM and a TGI (UO-31) of 3.46 µM. It also gave a GI50 ([1]; Homo sapiens) of 1.49 µM, a CC50 [1, 2] of 10.7 µM and a TGI [1] of 3.89 µM. It also gave a TGI (ADR-RES (NCI/ADR-RES); ADR-RES) of 7.90 µM, a GI50 (ADR-RES (NCI/ADR-RES); Homo sapiens, NCI/ADR-RES) of 2.23 µM and a CC50 (ADR-RES (NCI/ADR-RES); Homo sapiens, NCI/ADR-RES, read-out: LC50 (the source's name)) of 42.4 µM. It also gave a TGI (HOP-92) of 4.21 µM, a GI50 (HOP-92; Homo sapiens) of 1.52 µM and a CC50 (HOP-92; [2]) of 14.2 µM. It also gave a GI50 (NCI-H226; Homo sapiens) of 2.28 µM, an LC50 (50% lethal concentration) (NCI-H226; Homo sapiens) of 28.1 µM and a TGI (NCI-H226) of 6.24 µM. It also gave a TGI (HCT-116) of 3.02 µM, a GI50 (HCT-116; Homo sapiens) of 1.57 µM and an LC50 (concentration killing 50% of cells) (HCT-116; Homo sapiens) of 5.82 µM. It also gave a GI50 (MOLT-4; Homo sapiens) of 2.01 µM, a CC50 (MOLT-4; [2]) of 26.5 µM and a TGI (MOLT-4) of 5.19 µM. The GI50 (OVCAR-4; Homo sapiens) was 2.85 µM, the CC50 (OVCAR-4; [2]) was 66.8 µM and the TGI (OVCAR-4) was 11.1 µM.
